Results taken from US10927096B2, “Ester substituted ion channel blockers and methods for use” (Nocion Therapeutics, Inc., priority 2019, dated 2021).

What was measured:
NaV1.7 = target: T1, NaV1.7 (Homo sapiens, UniProt Q15858); assay: Whole cell patch clamp, internal block of NaV1.7 current; assay type: cell-based; conditions: % inhibition at 1 μM test concentration, compound in internal solution, manual whole cell patch clamp
T1 construct: expressed in transfected cells; host or cells: HEK293, tetracycline-inducible
T1 sequence (Q15858 whole entry): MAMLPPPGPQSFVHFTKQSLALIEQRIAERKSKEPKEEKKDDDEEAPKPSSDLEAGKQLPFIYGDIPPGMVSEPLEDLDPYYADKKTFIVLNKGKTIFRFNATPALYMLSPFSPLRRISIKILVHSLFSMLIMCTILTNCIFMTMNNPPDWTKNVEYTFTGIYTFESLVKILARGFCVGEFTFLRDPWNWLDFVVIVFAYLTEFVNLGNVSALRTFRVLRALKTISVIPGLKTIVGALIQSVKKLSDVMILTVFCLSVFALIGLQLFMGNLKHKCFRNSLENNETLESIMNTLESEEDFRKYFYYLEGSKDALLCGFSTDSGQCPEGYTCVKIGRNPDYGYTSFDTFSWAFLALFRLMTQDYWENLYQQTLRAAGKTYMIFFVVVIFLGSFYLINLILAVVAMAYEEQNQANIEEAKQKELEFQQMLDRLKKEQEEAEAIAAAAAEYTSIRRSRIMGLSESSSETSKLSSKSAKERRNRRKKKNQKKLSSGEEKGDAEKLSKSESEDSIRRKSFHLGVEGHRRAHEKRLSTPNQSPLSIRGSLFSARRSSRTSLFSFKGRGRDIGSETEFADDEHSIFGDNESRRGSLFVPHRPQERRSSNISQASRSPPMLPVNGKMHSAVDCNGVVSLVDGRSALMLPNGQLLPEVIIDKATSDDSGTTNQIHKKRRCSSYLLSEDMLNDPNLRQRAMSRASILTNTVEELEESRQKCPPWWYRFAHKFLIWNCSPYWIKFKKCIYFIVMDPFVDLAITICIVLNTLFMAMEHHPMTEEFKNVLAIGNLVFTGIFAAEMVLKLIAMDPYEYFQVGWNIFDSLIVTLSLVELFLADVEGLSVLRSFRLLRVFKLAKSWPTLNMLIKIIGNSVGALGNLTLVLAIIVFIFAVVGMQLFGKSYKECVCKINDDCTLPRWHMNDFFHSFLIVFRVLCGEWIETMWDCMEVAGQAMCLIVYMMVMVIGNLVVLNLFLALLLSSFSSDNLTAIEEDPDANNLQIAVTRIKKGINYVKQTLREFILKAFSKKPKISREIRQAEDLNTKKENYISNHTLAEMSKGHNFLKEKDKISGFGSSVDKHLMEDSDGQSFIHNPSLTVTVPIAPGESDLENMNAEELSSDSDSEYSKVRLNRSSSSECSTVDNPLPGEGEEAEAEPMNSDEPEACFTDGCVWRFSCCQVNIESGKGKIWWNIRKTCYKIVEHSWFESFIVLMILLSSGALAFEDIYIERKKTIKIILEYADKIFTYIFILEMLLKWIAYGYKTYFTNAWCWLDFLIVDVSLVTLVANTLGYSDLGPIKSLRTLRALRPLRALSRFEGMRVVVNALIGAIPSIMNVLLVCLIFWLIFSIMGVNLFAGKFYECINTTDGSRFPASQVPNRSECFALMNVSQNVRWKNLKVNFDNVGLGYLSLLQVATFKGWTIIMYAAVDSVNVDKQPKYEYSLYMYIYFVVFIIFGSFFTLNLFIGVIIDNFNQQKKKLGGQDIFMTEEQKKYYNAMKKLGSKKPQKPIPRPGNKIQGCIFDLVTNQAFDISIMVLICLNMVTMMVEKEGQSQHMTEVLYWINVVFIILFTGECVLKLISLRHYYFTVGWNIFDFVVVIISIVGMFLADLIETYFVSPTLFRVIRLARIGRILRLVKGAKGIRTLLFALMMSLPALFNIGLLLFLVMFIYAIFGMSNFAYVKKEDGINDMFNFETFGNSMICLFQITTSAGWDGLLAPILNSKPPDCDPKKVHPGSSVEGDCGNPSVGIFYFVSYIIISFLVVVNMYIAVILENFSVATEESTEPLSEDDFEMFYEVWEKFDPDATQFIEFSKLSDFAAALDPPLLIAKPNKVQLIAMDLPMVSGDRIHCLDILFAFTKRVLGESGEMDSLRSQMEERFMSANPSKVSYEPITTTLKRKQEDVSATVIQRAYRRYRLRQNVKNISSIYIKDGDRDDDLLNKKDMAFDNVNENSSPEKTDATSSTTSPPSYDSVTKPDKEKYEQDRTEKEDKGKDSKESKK
Protocol: NaV1.7 was expressed upon induction with tetracycline. Cells were cultured in DMEM containing 10% dialyzed Fetal Bovine Serum (VWR, Radnor, Pa.), 1% Glutamax (VWR, Radnor, Pa.), 1% Penicillin-Streptomycin (VWR, Radnor, Pa.), 100 mg/L Hygromycin (Thermo Fisher Scientific, Waltham, Mass. and 5 mg/L Blasticidin (Alfa Aesar, Haverhill, Mass.). Cells were grown and maintained at 37° C. in a humidified environment containing 10% C02 in air. Cells were detached from the culture flask for passage and harvested using 0.05% Trypsin-EDTA (Thermo Fisher Scientific, Waltham, Mass.). To induce NaV1.7, cells were induced with tetracycline (0.1-1 μg/mL, IBI Scientific, Peosta, Iowa) the day before recording and plated onto 24-well plates. Cells were washed with DPBS (VWR, Radnor, Pa.), trypsinized and then triturated five times in 10 mL of growth media to break apart cell aggregates. For one 24-well plate, 2 mL of cell suspension was mixed with 23 mL of fresh growth media and 0.1-1 μg/mL tetracycline added. 1 ml of mixed media with cells was then added to each well of a 24-well plate, with a 12 mm coverslip already placed in the bottom of the well. Cells were then incubated in 37° C. and 10% CO2 overnight.
The intracellular solution contained the following (in mM) CsCl 135, NaCl 10, EGTA 10, HEPES 10, MgCl2 2, adjusted to pH 7.2 with CsOH. The external solution was a normal Ringer solution containing (in mM) NaCl 155, HEPES 10, glucose 10, KCl 3.5, CaCl2 1.5, MgCl2 1 adjusted to pH 7.4 with NaOH. CsCl is from Alfa Aesar, Haverhill, Mass. All other chemicals are from Sigma-Aldrich, St. Louis, Mo. In order to test the degree of internal block by test compounds the compounds were dissolved in internal solution at the indicated test concentration. […] In order to test the degree of external block by test compounds the compounds were dissolved in external solution at the indicated test concentration.
18-24 hours after cells were induced with tetracycline, coverslips were placed into a chamber filled with Normal Ringer solution at room temperature and the chamber placed on a microscope. Pipettes were pulled from borosilicate glass on a P97 puller (Sutter Instrument, Novato, Calif.) and polished with a MF-830 Microforge (Narishige International USA, Inc, Amityville, N.Y.) to have a resistance of 1.5-2.5 MΩ when filled with CsCl internal solution at room temperature. Healthy cells (those that are round and translucent with no visible blemishes) were chosen for seal formation. A seal was formed between the pipette and the cell, and a brief pulse of suction was used to “break in” and establish the whole-cell configuration. The membrane potential was held at −100 mV before the voltage protocol began. Only cells with series resistance between 1.5-5 MΩ were retained for analysis. The voltage protocol was as follows: Cells were held at −100 mV for 12 ms followed by a hyperpolarizing step to −105 mV for 12 ms to monitor the leak. Cells were then stepped back to −100 mV for 40 ms. Cells were then depolarized to −20 mV for 10 ms and then returned to −100 mV for 26 ms (The FIGURE).
Once the recording was started, the voltage protocol was run at 30 second intervals for 5 minutes to get a stable baseline. This was followed by four 30-second periods of 5 Hz stimulation of the same voltage protocol separated by 1 minute of rest which was then followed by 0.33 Hz stimulation after the last train. Currents were recorded using PatchMaster software with Heka EPC10 (HEKA Electronics, Lambrecht, Germany). Only cells with inward current amplitudes at −20 mV between 400 pA and 4 nA were accepted. In addition, cells having leak currents greater than 10% of their current amplitudes were discarded.
The data was plotted using the Patchmaster software (HEKA Electronics, Lambrecht, Germany) and analyzed by plotting the minimum current during the voltage step to −20 mV (peak inward current) as a function of time. […]

[1] = PAMPA membrane permeability assay; assay type: physicochemical; conditions: pH 7.4 buffer, GIT lipid, 4 hours incubation
Protocol: The PAMPA assay (pION, Inc., Woburn Mass.) was used to determine the ability of compounds of the invention to cross an artificial lipid membrane by passive diffusion. Test compounds were dissolved in DMSO (10 mM) and diluted 200-fold in buffer (pION Inc., pH 7.4) to provide 50 uM stock solutions. Buffer (150 μL) was added to a UV blank plate and stock solutions (150 μL) were transferred to a UV reference plate. The blank and reference spectrum were read using a spectrophotometer. Stock solutions (200 μL) were added to the donor plate of the PAMPA sandwich plate and an accept plate painted with GIT lipid (pION Inc, 5 μL) was placed on top. Buffer (200 μL) was added to the acceptor plate and the PAMPA sandwich plate was incubated for 4 hours. Aliquots (150 μL) from the acceptor plate were added to a UV plate and read as acceptor spectrum. Aliquots (150 μL) of the donor solutions were added to a UV analysis plate and read as donor spectrum. The permeability coefficient of test compounds was calculated using PAMPA Explorer™ software (version 3.5.0.4) based on the AUC of the reference plate, the donor plate, and the acceptor plate.
The PAMPA permeability results (10^−6 cm/s) of representative compounds are reported as “+” (<0.1 10^−6 cm/s), “++” (0.1-2.0 10^−6 cm/s), “+++” (2.0-10.010^−6 cm/s) or “++++” (>10.0 10^−6 cm/s).

| SMILES | NaV1.7 Intracellular Inhibition (NaV1.7) | PAMPA (10^−6 cm/s) [1] |
| --- | --- | --- |
| COC(=O)C[N+]1(CC(=O)Nc2c(C)cccc2C(=O)OC)CCCC(c2ccccc2)C1 (mixture of isomers) [Compound 64] | ++ (70-30%) | + (<0.1 10^−6 cm/s) |
| CCCOC(=O)C1CCC[N+](CC)(CC(=O)Nc2c(C)cccc2C(=O)OC)C1.[I-] (stereo not drawn) [Compound 26] | ++ (70-30%) | + (<0.1 10^−6 cm/s) |
| COC(=O)c1cccc(C)c1NC(=O)C[N+]1(Cc2ccccc2)CCCCC1.[Br-] [Compound 3] | ++ (70-30%) | + (<0.1 10^−6 cm/s) |
| CC[N+]1(CC(=O)Nc2c(C)cccc2C(=O)OC)CCCC(C(N)=O)C1.[I-] (stereo not drawn) [Compound 55] | +++ (90-70%) | + (<0.1 10^−6 cm/s) |
| CC[N+]1(CC(=O)Nc2c(C)cccc2C(=O)OC)CCCC(C(=O)OCC(C)C)C1.[I-] (stereo not drawn) [Compound 23] | +++ (90-70%) | + (<0.1 10^−6 cm/s) |
| COC(=O)c1cccc(C)c1NC(=O)C[N+]1(Cc2ccccc2)CCCC(C(=O)N(C)C)C1 (mixture of isomers) [Compound 40] | ++ (70-30%) | + (<0.1 10^−6 cm/s) |
| CCOC(=O)c1cccc(C)c1NC(=O)C[N+]1(Cc2ccccc2)CCCCCC1 [Compound 2] | ++++ (>90%) | + (<0.1 10^−6 cm/s) |
| CCOC(=O)c1cccc(C)c1NC(=O)C[N+]1(Cc2ccccc2)CCCCC1.[Br-] [Compound 4] | +++ (90-70%) | + (<0.1 10^−6 cm/s) |
| CC[N+]1(CC(=O)Nc2c(C)cccc2C(=O)OC)CCCC(C(=O)OC2CCCCC2)C1 (mixture of isomers) [Compound 27] | ++ (70-30%) | + (<0.1 10^−6 cm/s) |
| CNC(=O)C[N+]1(CC(=O)Nc2c(C)cccc2C(=O)OC)CCCC(c2ccccc2)C1.[Br-] (mixture of isomers) [Compound 59] | +++ (90-70%) | + (<0.1 10^−6 cm/s) |
| COC(=O)c1cccc(C)c1NC(=O)C[N+]1(CC(N)=O)CCCC(c2ccccc2)C1 (mixture of isomers) [Compound 61] | +++ (90-70%) | + (<0.1 10^−6 cm/s) |
| CCCOC(=O)c1cccc(C)c1NC(=O)C[N+]1(Cc2ccccc2)CCCCCC1.[Br-] [Compound 6] | +++ (90-70%) | + (<0.1 10^−6 cm/s) |
| CCCCOC(=O)C1CCC[N+](CC(=O)Nc2c(C)cccc2C(=O)OC)(Cc2ccccc2)C1.[Br-] (mixture of isomers) [Compound 14] | ++ (70-30%) | + (<0.1 10^−6 cm/s) |
| COC(=O)c1cccc(C)c1NC(=O)C[N+]1(Cc2ccccc2)CCCC1 [Compound 5] | ++ (70-30%) | +++ (2.0-10.010^−6 cm/s) |
| CCN(CC)C(=O)C[N+]1(CC(=O)Nc2c(C)cccc2C(=O)OC)CCCC(c2ccccc2)C1 (mixture of isomers) [Compound 62] | ++ (70-30%) | + (<0.1 10^−6 cm/s) |
| CCOC(=O)C1CCC[N+](CC(=O)Nc2c(C)cccc2C(=O)OC)(Cc2ccccc2)C1 (mixture of isomers) [Compound 16] | +++ (90-70%) | + (<0.1 10^−6 cm/s) |
| CNC(=O)C1CCC[N+](CC(=O)Nc2c(C)cccc2C(=O)OC)(Cc2ccccc2)C1 (mixture of isomers) [Compound 31] | ++ (70-30%) | + (<0.1 10^−6 cm/s) |
| CCCNC(=O)C1CCC[N+](CC(=O)Nc2c(C)cccc2C(=O)OC)(Cc2ccccc2)C1 (mixture of isomers) [Compound 28] | ++ (70-30%) | +++ (2.0-10.010^−6 cm/s) |
| COC(=O)c1cccc(C)c1NC(=O)C[N+]1(Cc2ccccc2)CCCC(C(N)=O)C1.[Br-] (stereo not drawn) [Compound 30] | ++ (70-30%) | + (<0.1 10^−6 cm/s) |
| COC(=O)c1cccc(C)c1NC(=O)C[n+]1cccc(-c2ccccc2)c1.[Br-] [Compound 66] | +++ (90-70%) | + (<0.1 10^−6 cm/s) |
| CC[N+]1(CC(=O)Nc2c(C)cccc2C(=O)OC)CCCC(C(=O)N2CCCC2)C1 (mixture of isomers) [Compound 54] | ++ (70-30%) | + (<0.1 10^−6 cm/s) |
| CC[N+]1(CC(=O)Nc2c(C)cccc2C(=O)OC)CCCC(C(=O)NC2CCCCC2)C1.[I-] (stereo not drawn) [Compound 56] | ++ (70-30%) | + (<0.1 10^−6 cm/s) |
| COC(=O)c1cccc(C)c1NC(=O)C[N+]1(Cc2ccccc2)CCCC(C(=O)N2CCCC2)C1 (mixture of isomers) [Compound 43] | ++ (70-30%) | + (<0.1 10^−6 cm/s) |
| CCNC(=O)C1CCC[N+](CC(=O)Nc2c(C)cccc2C(=O)OC)(Cc2ccccc2)C1.O=C([O-])C(F)(F)F (stereo not drawn) [Compound 33] | ++ (70-30%) | ++ (0.1-2.0 10^−6 cm/s) |
| CCOC(=O)c1cccc(C)c1NC(=O)C[N+]1(Cc2ccccc2)CCCC1.[Br-] [Compound 9] | +++ (90-70%) | + (<0.1 10^−6 cm/s) |
| COC(=O)c1cccc(C)c1NC(=O)C[N+]1(Cc2ccccc2)CCCC(C(=O)NC2CCCC2)C1.[Br-] (stereo not drawn) [Compound 41] | + (<30%) | + (<0.1 10^−6 cm/s) |
| CCOC(=O)c1cccc(C)c1NC(=O)C[n+]1cccc(-c2ccccc2)c1 [Compound 67] | +++ (90-70%) | +++ (2.0-10.010^−6 cm/s) |
| COC(=O)c1cccc(C)c1NC(=O)C[N+]1(Cc2ccccc2)CCCCCC1 [Compound 1] | ++++ (>90%) | + (<0.1 10^−6 cm/s) |
| CCCCOC(=O)C1CCC[N+](CC)(CC(=O)Nc2c(C)cccc2C(=O)OC)C1.[I-] (mixture of isomers) [Compound 15] | ++ (70-30%) | + (<0.1 10^−6 cm/s) |
| COC(=O)c1cccc(C)c1NC(=O)C[N+]1(Cc2ccccc2)CCCC(C(=O)N2CCCCCC2)C1.[Br-] (stereo not drawn) [Compound 34] | ++ (70-30%) | + (<0.1 10^−6 cm/s) |
